Results on three compounds are retold here after publication PMC3914206.

SMILES strings stand for the structures.

In test [1] the target is T1, panel of 442 kinases (Homo sapiens, UniProt P52333).
T1 construct: purchased KINOMEscan
T1 sequence (P52333 1-1124): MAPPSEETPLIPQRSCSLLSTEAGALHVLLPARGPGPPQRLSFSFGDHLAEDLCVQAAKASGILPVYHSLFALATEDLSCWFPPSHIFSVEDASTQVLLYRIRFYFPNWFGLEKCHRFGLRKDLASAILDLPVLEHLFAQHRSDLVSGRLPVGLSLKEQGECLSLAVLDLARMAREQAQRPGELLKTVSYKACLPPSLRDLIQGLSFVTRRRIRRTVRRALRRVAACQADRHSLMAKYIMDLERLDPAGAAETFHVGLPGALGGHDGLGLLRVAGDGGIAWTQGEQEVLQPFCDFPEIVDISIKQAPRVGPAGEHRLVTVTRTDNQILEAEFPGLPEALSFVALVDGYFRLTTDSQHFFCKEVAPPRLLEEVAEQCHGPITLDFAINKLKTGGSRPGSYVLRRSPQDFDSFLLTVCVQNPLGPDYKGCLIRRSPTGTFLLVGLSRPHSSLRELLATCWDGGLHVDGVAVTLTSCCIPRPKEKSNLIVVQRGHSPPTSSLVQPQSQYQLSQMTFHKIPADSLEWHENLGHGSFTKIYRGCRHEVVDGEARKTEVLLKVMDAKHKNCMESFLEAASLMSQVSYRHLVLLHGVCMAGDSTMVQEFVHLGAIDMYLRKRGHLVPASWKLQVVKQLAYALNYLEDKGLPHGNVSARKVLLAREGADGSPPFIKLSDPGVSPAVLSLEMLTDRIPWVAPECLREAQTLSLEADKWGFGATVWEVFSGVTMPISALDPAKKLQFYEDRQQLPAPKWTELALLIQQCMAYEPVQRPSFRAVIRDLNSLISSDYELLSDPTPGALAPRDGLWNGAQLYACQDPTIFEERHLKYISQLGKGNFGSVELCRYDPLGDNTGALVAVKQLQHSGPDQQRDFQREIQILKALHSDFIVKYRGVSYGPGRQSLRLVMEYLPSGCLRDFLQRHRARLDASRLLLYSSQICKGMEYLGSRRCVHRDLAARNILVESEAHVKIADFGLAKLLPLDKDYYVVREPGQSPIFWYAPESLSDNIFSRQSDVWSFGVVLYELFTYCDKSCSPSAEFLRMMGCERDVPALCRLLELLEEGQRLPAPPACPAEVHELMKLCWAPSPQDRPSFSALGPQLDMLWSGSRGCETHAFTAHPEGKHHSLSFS
Format: binding. Particulars: Compound Concentration 10 µM. From the text:
(§1) We assessed the selectivity of members of this scaffold using the KINOMEscan methodology across a near comprehensive panel of 442 kinases [[18,27]].

Test [2] addresses T2, panel of 442 kinases (Homo sapiens, UniProt Q04771).
T2 construct: purchased KINOMEscan
T2 sequence (Q04771 21-509): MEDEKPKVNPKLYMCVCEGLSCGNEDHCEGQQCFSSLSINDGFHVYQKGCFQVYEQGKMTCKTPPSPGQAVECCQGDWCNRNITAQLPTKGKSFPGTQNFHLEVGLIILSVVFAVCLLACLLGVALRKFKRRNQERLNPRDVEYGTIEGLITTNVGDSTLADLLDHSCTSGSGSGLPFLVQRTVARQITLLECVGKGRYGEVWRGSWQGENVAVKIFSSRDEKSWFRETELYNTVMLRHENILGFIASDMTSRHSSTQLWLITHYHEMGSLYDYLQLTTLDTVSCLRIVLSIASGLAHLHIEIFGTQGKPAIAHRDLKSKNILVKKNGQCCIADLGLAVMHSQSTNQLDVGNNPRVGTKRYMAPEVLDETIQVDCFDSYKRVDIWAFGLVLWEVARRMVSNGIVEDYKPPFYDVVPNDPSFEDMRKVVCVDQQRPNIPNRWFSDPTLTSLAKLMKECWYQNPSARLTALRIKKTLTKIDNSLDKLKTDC
The test is classed as binding. To be noted: Compound Concentration 10 µM.
Text: as §1

For the compound `CCOc1cc(C(=O)N2CCC(N3CCN(C)CC3)CC2)ccc1Nc1ncc2c(n1)N(C1CCCC1)c1ccccc1C(=O)N2C` [Compound 26], the “KINOMEscan: JAK3(JH1domain-catalytic)” value in test [1] turned out to be 100. In addition, in test [2], the “KINOMEscan: ACVR1” value is reported as 100.

On to `COc1cc(C(=O)N2CCC(N3CCN(C)CC3)CC2)ccc1Nc1ncc2c(n1)N(C)c1ccccc1C(=O)N2C` [15 (LRRK2-IN-1)], for which, in test [1], the “KINOMEscan: JAK3(JH1domain-catalytic)” value is 100. Besides, the “KINOMEscan: ACVR1” value in test [2] is reported as 98.

As to `COc1cc(C(=O)N2CCC(N3CCN(C)CC3)CC2)ccc1Nc1ncc2c(n1)N(C1CCCC1)c1ccccc1C(=O)N2C` [Compound 25, 11-cyclopentyl-2-((2-methoxy-4-(4-(4-methylpiperazin-1-yl)piperidine-1-carbonyl)phenyl)amino)-5-methyl-5H-benzo[e]pyrimido[5,4-b][1,4]diazepin-6(11H)-one], the “KINOMEscan: JAK3(JH1domain-catalytic)” value in test [1] amounted to 100. In addition, the “KINOMEscan: ACVR1” value in test [2] was found to be 100.
